Measured values from PMC12473246, “An Improved Ratiometric FRET Biosensor with Higher Affinity for Extracellular ATP” (Sensors (Basel, Switzerland), 2025).
Where two headings read alike, the source gives them in different places.

Key:
[1] = molecular target: T1, ECATS2 (DM-20) (Bacillus sp. PS3, UniProt A0A0M5MQR7, R103A/R115A); assay: FRET ratio live-cell imaging dose response; type: cell-based
T1 construct: gene uncC; double-mutant epsilon subunit between mseCFP and mVenus, 20 nm alpha-helical ER/K linker to PDGFR transmembrane domain
T1 sequence (A0A0M5MQR7 1-133, stated change not applied): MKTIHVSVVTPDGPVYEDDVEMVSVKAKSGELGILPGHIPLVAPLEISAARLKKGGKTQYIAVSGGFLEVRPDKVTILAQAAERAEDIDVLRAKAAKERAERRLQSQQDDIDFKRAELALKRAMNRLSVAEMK

[2] = molecular target: T2, ecATeam3.10 (Bacillus sp. PS3, UniProt A0A0M5MQR7); assay: FRET ratio live-cell imaging dose response; type: cell-based; conditions: read-out: apparent dissociation constant
T2 construct: gene uncC; expressed on Neuro2A or HEK293 cells
T2 sequence (A0A0M5MQR7 1-133): as the sequence (A0A0M5MQR7 1-133, stated change not applied) above

Row | SMILES | Kd ([1]; read-out: apparent dissociation constant) [µM] | Kd [2] [µM] | Kd ([1]; read-out: apparent ADP dissociation constant) [µM]
1 | Nc1ncnc2c1ncn2[C@@H]1O[C@H](COP(=O)(O)OP(=O)(O)OP(=O)(O)O)[C@@H](O)[C@H]1O [ATP] | 3.7 ± 0.6 | 12 ± 5 | 
2 | Nc1ncnc2c1ncn2[C@@H]1O[C@H](COP(=O)(O)OP(=O)(O)O)[C@@H](O)[C@H]1O [ADP] |  |  | ~100
